In article PMC7211202 (Investigational New Drugs, 2019):
Values joined by “and” are separate entries in the source; they are usually repeats but may differ in a detail not shown here. Identical values can stand only once. “Also recorded” adds a separate entry of the source. Like-named read-outs stand apart in the source and are kept apart here.

Columns and labels:
[1] = system: P53WT solid tumors or multiple myeloma; test: Tumor response (RECIST 1.1, Macdonald, IMWG criteria); type: in vivo, human
Description: Efficacy response was assessed using revised Response Evaluation Criteria in Solid Tumors (RECIST), version 1.1 [25] Macdonald criteria for GBM [26] or International Myeloma Working Group (IMWG) response criteria for multiple myeloma.

[2] = Plasma AMG 232 pharmacokinetics (HPLC-MS, non-compartmental analysis); type: in vivo, human; details: for AUC(0-t) / Cmax / Tmax / Vd/F: human, plasma, oral; for AUC(0-t): read-out: AUC24h, mean (SD); for Cmax: read-out: Cmax, mean (SD); for Tmax: read-out: tmax, median (range); for Vd/F: read-out: Vz/F, mean (SD)
Description: Non-compartmental analysis was performed using WinNonlin Professional software, version 6.3. Parameters were summarized descriptively.

[3] = 240-mg dose expansion, ER + PR+ breast cancer
[4] = 240-mg dose expansion, ER + PR– breast cancer
[5] = 240-mg dose expansion, breast cancer
[6] = 240-mg dose expansion, multiple myeloma
[7] = 240-mg dose expansion, other solid tumors
[8] = 15 mg, Day 1, dose escalation, 15 mg (n = 3)
[9] = 15 mg, Day 7, dose escalation, 15 mg (n = 3)
[10] = 30 mg, Day 1, dose escalation, 30 mg (n = 3)
[11] = 30 mg, Day 7, dose escalation, 30 mg (n = 3)
[12] = 60 mg, Day 1, dose escalation, 60 mg (n = 2–4)
[13] = 60 mg, Day 7, dose escalation, 60 mg (n = 2–4)
[14] = 120 mg, Day 1, dose escalation, 120 mg (n = 4–7)
[15] = 120 mg, Day 7, dose escalation, 120 mg (n = 4–7)
[16] = 240 mg, Day 1, 240-mg dose expansion, DDLPS (n = 6–10)
[17] = 240 mg, Day 1, 240-mg dose expansion, ER + PR+ Breast (n = 6–8)
[18] = 240 mg, Day 1, 240-mg dose expansion, ER + PR– Breast (n = 4)
[19] = 240 mg, Day 1, 240-mg dose expansion, GBM (n = 6–9)
[20] = 240 mg, Day 1, 240-mg dose expansion, Multiple Myeloma (n = 7–10)
[21] = 240 mg, Day 1, 240-mg dose expansion, Other Solid (n = 9–16)
[22] = 240 mg, Day 1, 240-mg dose expansion, Total (n = 47–67)
[23] = 240 mg, Day 1, 240-mg dose expansion, WDLPS (n = 9–10)
[24] = 240 mg, Day 1, Parts 1 and 2, 240 mg (n = 54–75)
[25] = 240 mg, Day 1, dose escalation, 240 mg (n = 7–8)
[26] = 240 mg, Day 7, 240-mg dose expansion, DDLPS (n = 6–10)
[27] = 240 mg, Day 7, 240-mg dose expansion, ER + PR+ Breast (n = 6–8)
[28] = 240 mg, Day 7, 240-mg dose expansion, ER + PR– Breast (n = 4)
[29] = 240 mg, Day 7, 240-mg dose expansion, GBM (n = 6–9)
[30] = 240 mg, Day 7, 240-mg dose expansion, Multiple Myeloma (n = 7–10)
[31] = 240 mg, Day 7, 240-mg dose expansion, Other Solid (n = 9–16)
[32] = 240 mg, Day 7, 240-mg dose expansion, Total (n = 47–67)
[33] = 240 mg, Day 7, 240-mg dose expansion, WDLPS (n = 9–10)
[34] = 240 mg, Day 7, Parts 1 and 2, 240 mg (n = 54–75)
[35] = 240 mg, Day 7, dose escalation, 240 mg (n = 7–8)
[36] = 300 mg, Day 1, dose escalation, 300 mg (n = 3–4)
[37] = 300 mg, Day 7, dose escalation, 300 mg (n = 3–4)
[38] = 360 mg, Day 1, dose escalation, 360 mg (n = 3–4)
[39] = 360 mg, Day 7, dose escalation, 360 mg (n = 3–4)
[40] = 480 mg, Day 1, dose escalation, 480 mg (n = 5–6)
[41] = 480 mg, Day 7, dose escalation, 480 mg (n = 5–6)

CC(C)[C@@H](CS(=O)(=O)C(C)C)N1C(=O)[C@@](C)(CC(=O)O)C[C@H](c2cccc(Cl)c2)[C@H]1c1ccc(Cl)cc1 [AMG 232]
Stable disease as a best result ([1]; 240-mg dose expansion, DDLPS): 7 of 10 | median duration of stable disease ([1]; 240-mg dose expansion, DDLPS): 2.0 months | duration of stable disease, range [1, 3]: 0.9–4.0 months | median duration of stable disease [1, 3]: 2.0 months | duration of stable disease, range [1, 4]: 0.9–3.8 months | median duration of stable disease [1, 4]: 1.4 months | Stable disease as a best result ([1]; 240-mg dose expansion, GBM): six of 10 and 6 of 10 | median duration of stable disease ([1]; 240-mg dose expansion, GBM): 1.8 months | duration of stable disease, range ([1]; 240-mg dose expansion, WDLPS): 1.9–6.1 months | median duration of stable disease ([1]; 240-mg dose expansion, WDLPS): 3.9 months | Stable disease as a best result [1, 5]: 7 of 12 | duration of stable disease, range [1, 5]: 1.7–4.0 months | median duration of stable disease [1, 5]: 1.4–2.0 months and 2.0 months | Stable disease as a best result [1, 6]: 5 of 10 | duration of stable disease, range [1, 6]: 1.2–2.0 months | Stable disease as a best result [1, 7]: 10 of 16 | median duration of stable disease [1, 7]: 3.3 months | Patients with progressive disease ([1]; 240-mg dose expansion, overall): 15 (22%) n (%) | Patients with stable disease ([1]; 240-mg dose expansion, overall): 45 (66%) n (%) | duration of stable disease, range ([1]; 240-mg dose expansion, overall): 0.5–12.9 months | median duration of stable disease ([1]; 240-mg dose expansion, overall): 2.0 months | Patients with unconfirmed partial responses ([1]; central evaluation): 4% | Duration of unconfirmed partial response ([1]; central evaluation, patient with WDLPS): 2.4 months | Duration of unconfirmed partial response ([1]; central evaluation, patient with breast cancer): 2.0 months | Duration of unconfirmed partial response ([1]; central evaluation, patient with squamous cell carcinoma): 0.1 months | Patients with stable disease ([1]; dose escalation): 31 (80%) n (%) | duration of stable disease, range ([1]; dose escalation): 0.7–22.4 mo | median duration of stable disease ([1]; dose escalation): 3.1 months | Patients with non-complete response/non-progressive disease ([1]; dose escalation, based on non-target lesions): 2 (5%) n (%) | Objective responses ([1]; local evaluation, dose escalation and expansion): no responses; also recorded: no objective response | Dose proportionality of plasma concentrations ([2]; 15–480 mg QD for 7 days Q3W): increased generally dose proportionally | AUC(0-t) [2, 8]: 884 ng·h/mL | Cmax [2, 8]: 169 ng/mL | Tmax [2, 8]: 3.1 h | AUC(0-t) [2, 9]: 949 ng·h/mL | Cmax [2, 9]: 130 ng/mL | Vd/F [2, 9]: 497 L | Tmax [2, 9]: 3.1 h | AUC(0-t) [2, 10]: 1960 ng·h/mL | Cmax [2, 10]: 255 ng/mL | Tmax [2, 10]: 3 h | AUC(0-t) [2, 11]: 2830 ng·h/mL | Cmax [2, 11]: 259 ng/mL | Tmax [2, 11]: 3 h | AUC(0-t) [2, 12]: 2950 ng·h/mL | Cmax [2, 12]: 527 ng/mL | Tmax [2, 12]: 3 h | AUC(0-t) [2, 13]: 4000 ng·h/mL | Cmax [2, 13]: 457 ng/mL | Vd/F [2, 13]: 360 L | Tmax [2, 13]: 4 h | AUC(0-t) [2, 14]: 5160 ng·h/mL | Cmax [2, 14]: 599 ng/mL | Tmax [2, 14]: 3 h | AUC(0-t) [2, 15]: 8940 ng·h/mL | Cmax [2, 15]: 868 ng/mL | Vd/F [2, 15]: 664 L | Tmax [2, 15]: 3 h | AUC(0-t) [2, 16]: 8010 ng·h/mL | Cmax [2, 16]: 986 ng/mL | Tmax [2, 16]: 2 h | AUC(0-t) [2, 17]: 9660 ng·h/mL | Cmax [2, 17]: 1920 ng/mL | Tmax [2, 17]: 2.8 h | AUC(0-t) [2, 18]: 9430 ng·h/mL | Cmax [2, 18]: 1360 ng/mL | Tmax [2, 18]: 2.1 h | AUC(0-t) [2, 19]: 5360 ng·h/mL | Cmax [2, 19]: 978 ng/mL | Tmax [2, 19]: 3 h | Cmax [2, 20]: 1320 ng/mL | Tmax [2, 20]: 2 h | AUC(0-t) [2, 21]: 10800 ng·h/mL | Cmax [2, 21]: 1670 ng/mL | Tmax [2, 21]: 3 h | AUC(0-t) [2, 22]: 8830 ng·h/mL | Cmax [2, 22]: 1390 ng/mL | Tmax [2, 22]: 3 h | AUC(0-t) [2, 23]: 9260 ng·h/mL | Cmax [2, 23]: 1350 ng/mL | Tmax [2, 23]: 3.1 h | AUC(0-t) [2, 24]: 8480 ng·h/mL | Cmax [2, 24]: 1350 ng/mL | Tmax [2, 24]: 3 h | AUC(0-t) [2, 25]: 5690 ng·h/mL | Cmax [2, 25]: 1030 ng/mL | Tmax [2, 25]: 2 h | AUC(0-t) [2, 26]: 10800 ng·h/mL | Cmax [2, 26]: 1050 ng/mL | Vd/F [2, 26]: 537 L | Tmax [2, 26]: 3 h | Cmax [2, 27]: 1350 ng/mL | Vd/F [2, 27]: 689 L | Tmax [2, 27]: 2.8 h | AUC(0-t) [2, 28]: 9960 ng·h/mL | Cmax [2, 28]: 1620 ng/mL | Vd/F [2, 28]: 814 L | Tmax [2, 28]: 1 h | AUC(0-t) [2, 29]: 9210 ng·h/mL | Cmax [2, 29]: 988 ng/mL | Vd/F [2, 29]: 1010 L | Tmax [2, 29]: 2.8 h | AUC(0-t) [2, 30]: 8450 ng·h/mL | Cmax [2, 30]: 1190 ng/mL | Vd/F [2, 30]: 859 L | Tmax [2, 30]: 1.1 h | AUC(0-t) [2, 31]: 17200 ng·h/mL | Cmax [2, 31]: 2200 ng/mL | Vd/F [2, 31]: 353 L | Tmax [2, 31]: 2.9 h | AUC(0-t) [2, 32]: 12300 ng·h/mL | Cmax [2, 32]: 1420 ng/mL | Vd/F [2, 32]: 627 L | Tmax [2, 32]: 2.8 h | AUC(0-t) [2, 33]: 15700 ng·h/mL | Cmax [2, 33]: 1230 ng/mL | Vd/F [2, 33]: 389 L | Tmax [2, 33]: 3 h | AUC(0-t) [2, 34]: 12100 ng·h/mL | Cmax [2, 34]: 1440 ng/mL | Vd/F [2, 34]: 613 L | Tmax [2, 34]: 2.9 h | AUC(0-t) [2, 35]: 10600 ng·h/mL | Cmax [2, 35]: 1560 ng/mL | Vd/F [2, 35]: 523 L | Tmax [2, 35]: 3 h | AUC(0-t) [2, 36]: 14700 ng·h/mL | Cmax [2, 36]: 1740 ng/mL | Tmax [2, 36]: 3 h | AUC(0-t) [2, 37]: 25000 ng·h/mL | Cmax [2, 37]: 2090 ng/mL | Vd/F [2, 37]: 762 L | Tmax [2, 37]: 3.1 h | AUC(0-t) [2, 38]: 15800 ng·h/mL | Cmax [2, 38]: 2380 ng/mL | Tmax [2, 38]: 2 h | AUC(0-t) [2, 39]: 15500 ng·h/mL | Cmax [2, 39]: 2050 ng/mL | Vd/F [2, 39]: 423 L | Tmax [2, 39]: 2 h | AUC(0-t) [2, 40]: 18800 ng·h/mL | Cmax [2, 40]: 2630 ng/mL | Tmax [2, 40]: 3 h | AUC(0-t) [2, 41]: 18400 ng·h/mL | Cmax [2, 41]: 1750 ng/mL | Vd/F [2, 41]: 585 L | Tmax [2, 41]: 3.1 h | Vd/F ([2]; Day 7, Parts 1 and 2, All Doses (n = 76–97)): 615 L
